Experimental data published in ChEMBL document CHEMBL3217574, “Discovery of CP-866,087, a mu opioid receptor antagonist for the treatment of alcohol abuse and dependence” (Medchemcomm, 2011).

Assays:
[1] = Intrinsic clearance in human liver microsomes; type: ADME; details: read-out: CLH
[2] = target: Voltage-gated inwardly rectifying potassium channel KCNH2 (Homo sapiens, UniProt Q12809); experiment: Inhibition of human ERG by [3H]dofetilide binding assay
[3] = target: CYP2D6 (Homo sapiens, UniProt P10635); experiment: Inhibition of CYP2D6 (unknown origin) at 3 uM after 8 mins; type: ADME
[4] = tested on: human MDR1 (P-gp); experiment: Efflux ratio of apparent permeability from basolateral to apical side over apical to basolateral side in MDCK cells transfected with human MDR1; type: ADME, cell-based, Canis lupus familiaris; details: dog
[5] = Ratio of drug level in rat brain to plasma at 1 mg/kg, sc at 0.75 hrs time-point; type: ADME, organism-based; set-up: dose 1 mg/kg, route subcutaneous; details: read-out: BPR
[6] = tested on: Rattus norvegicus; experiment: Antagonist activity against morphine-induced antinociception in sc dosed rat assessed as reversal of latency increase; type: functional
[7] = Volume of distribution in rat; type: ADME, organism-based; details: in vivo
[8] = target: T1, Mu-type opioid receptor (Homo sapiens, UniProt P35372); experiment: Displacement of [3H]diprenorphine from human mu opioid receptor expressed in cells after 1 hr by liquid scintillation counting analysis; type: cell-based
[9] = Clearance in rat; type: ADME, organism-based; details: in vivo
[10] = tested on: Rattus norvegicus; experiment: Reduction in alcohol intake in sc dosed alcohol-preferring rat after 30 mins; type: functional, organism-based
[11] = Half life in rat; type: ADME, organism-based; details: in vivo
[12] = target: Delta-type opioid receptor (Homo sapiens, UniProt P41143); experiment: Displacement of [3H]diprenorphine from human delta opioid receptor expressed in cells after 1 hr by liquid scintillation counting analysis; type: cell-based
[13] = target: Kappa-type opioid receptor (Homo sapiens, UniProt P41145); experiment: Displacement of [3H]diprenorphine from human kappa opioid receptor expressed in cells after 1 hr by liquid scintillation counting analysis; type: cell-based
[14] = Drug level in rat cerebrospinal fluid at 1 mg/kg, sc at 0.75 hrs time-point; type: ADME, organism-based; set-up: dose 1 mg/kg, route subcutaneous; details: read-out: Drug uptake
[15] = tested on: Rattus norvegicus; experiment: Reduction in alcohol intake in alcohol-preferring rat at 1 mg/kg, sc after 30 mins; type: functional; details: 0.5 h, route subcutaneous
[16] = target: T1, Mu-type opioid receptor; experiment: Antagonist activity at human mu opioid receptor expressed in CHO cells assessed as [35S]-GTPgammaS binding after 1 hr by liquid scintillation counting analysis; type: functional, cell-based
[17] = tested on: Rattus norvegicus; experiment: Reduction in alcohol intake in alcohol-preferring rat at 5.6 mg/kg, sc after 30 mins; type: functional; details: 0.5 h, route subcutaneous
[18] = Total plasma concentration in rat at 1 mg/kg, sc at 0.75 hrs time-point; type: ADME, organism-based; set-up: dose 1 mg/kg, route subcutaneous
[19] = Fraction unbound in rat at 1 mg/kg, sc at 0.75 hrs time-point; type: ADME, organism-based; set-up: dose 1 mg/kg, route subcutaneous; details: plasma
[20] = tested on: Rattus norvegicus; experiment: Reduction in alcohol intake in alcohol-preferring rat at 3 mg/kg, sc after 30 mins; type: functional; details: 0.5 h, route subcutaneous
[21] = organism: Homo sapiens; experiment: Ratio of ki for human mu opioid receptor to human kappa opioid receptor
[22] = organism: Homo sapiens; experiment: Ratio of Ki for human mu opioid receptor to Ki for human delta opioid receptor
[23] = target: hERG (KCNH2) (Homo sapiens, UniProt Q12809); experiment: Inhibition of human ERG
[24] = Inhibition of IC20 for human ERG over plasma efficacious concentration; type: functional

CYP2D6, sequence (P10635 whole entry): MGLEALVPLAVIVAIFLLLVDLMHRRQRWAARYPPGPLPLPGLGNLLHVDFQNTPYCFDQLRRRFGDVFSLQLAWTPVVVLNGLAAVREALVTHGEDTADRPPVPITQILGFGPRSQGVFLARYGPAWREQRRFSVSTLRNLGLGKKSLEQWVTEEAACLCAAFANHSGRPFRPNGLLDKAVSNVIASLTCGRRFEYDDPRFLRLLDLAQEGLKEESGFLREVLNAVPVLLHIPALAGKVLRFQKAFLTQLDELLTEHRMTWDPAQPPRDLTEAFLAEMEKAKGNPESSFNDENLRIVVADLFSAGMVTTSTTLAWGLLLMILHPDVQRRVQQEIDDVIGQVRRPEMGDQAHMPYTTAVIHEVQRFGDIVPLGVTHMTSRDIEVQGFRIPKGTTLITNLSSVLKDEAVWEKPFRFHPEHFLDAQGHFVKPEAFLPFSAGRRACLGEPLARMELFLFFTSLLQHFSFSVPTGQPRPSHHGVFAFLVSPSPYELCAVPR
T1 sequence (P35372 whole entry): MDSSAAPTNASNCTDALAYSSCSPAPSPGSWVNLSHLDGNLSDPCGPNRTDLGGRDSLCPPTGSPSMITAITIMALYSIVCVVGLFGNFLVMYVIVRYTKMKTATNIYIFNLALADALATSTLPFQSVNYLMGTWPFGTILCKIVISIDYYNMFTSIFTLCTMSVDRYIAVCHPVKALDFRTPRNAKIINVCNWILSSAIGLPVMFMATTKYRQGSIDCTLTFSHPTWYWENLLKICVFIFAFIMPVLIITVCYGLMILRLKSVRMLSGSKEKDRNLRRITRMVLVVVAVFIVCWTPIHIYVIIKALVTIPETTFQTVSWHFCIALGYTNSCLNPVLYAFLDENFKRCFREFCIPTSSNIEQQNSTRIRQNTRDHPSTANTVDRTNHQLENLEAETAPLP
Delta-type opioid receptor, sequence (P41143 whole entry): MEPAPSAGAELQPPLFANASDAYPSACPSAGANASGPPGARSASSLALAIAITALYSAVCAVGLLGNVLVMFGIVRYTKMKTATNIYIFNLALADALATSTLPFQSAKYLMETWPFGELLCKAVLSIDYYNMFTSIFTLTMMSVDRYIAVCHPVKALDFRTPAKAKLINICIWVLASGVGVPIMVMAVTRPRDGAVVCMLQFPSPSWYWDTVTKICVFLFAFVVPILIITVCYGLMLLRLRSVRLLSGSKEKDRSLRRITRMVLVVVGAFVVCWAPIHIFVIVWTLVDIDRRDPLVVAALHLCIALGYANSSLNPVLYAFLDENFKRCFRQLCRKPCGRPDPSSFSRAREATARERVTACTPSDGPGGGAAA
Kappa-type opioid receptor, sequence (P41145 whole entry): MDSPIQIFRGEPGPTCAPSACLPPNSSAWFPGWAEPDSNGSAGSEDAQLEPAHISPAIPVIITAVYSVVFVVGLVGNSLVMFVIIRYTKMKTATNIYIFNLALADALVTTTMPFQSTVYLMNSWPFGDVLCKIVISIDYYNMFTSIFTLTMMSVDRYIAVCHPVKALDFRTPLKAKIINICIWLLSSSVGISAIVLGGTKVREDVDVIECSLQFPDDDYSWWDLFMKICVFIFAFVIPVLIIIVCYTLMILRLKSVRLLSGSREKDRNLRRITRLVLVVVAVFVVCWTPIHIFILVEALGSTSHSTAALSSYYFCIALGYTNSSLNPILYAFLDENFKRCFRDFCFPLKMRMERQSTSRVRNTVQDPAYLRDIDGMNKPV
Voltage-gated inwardly rectifying potassium channel KCNH2, sequence (Q12809 whole entry): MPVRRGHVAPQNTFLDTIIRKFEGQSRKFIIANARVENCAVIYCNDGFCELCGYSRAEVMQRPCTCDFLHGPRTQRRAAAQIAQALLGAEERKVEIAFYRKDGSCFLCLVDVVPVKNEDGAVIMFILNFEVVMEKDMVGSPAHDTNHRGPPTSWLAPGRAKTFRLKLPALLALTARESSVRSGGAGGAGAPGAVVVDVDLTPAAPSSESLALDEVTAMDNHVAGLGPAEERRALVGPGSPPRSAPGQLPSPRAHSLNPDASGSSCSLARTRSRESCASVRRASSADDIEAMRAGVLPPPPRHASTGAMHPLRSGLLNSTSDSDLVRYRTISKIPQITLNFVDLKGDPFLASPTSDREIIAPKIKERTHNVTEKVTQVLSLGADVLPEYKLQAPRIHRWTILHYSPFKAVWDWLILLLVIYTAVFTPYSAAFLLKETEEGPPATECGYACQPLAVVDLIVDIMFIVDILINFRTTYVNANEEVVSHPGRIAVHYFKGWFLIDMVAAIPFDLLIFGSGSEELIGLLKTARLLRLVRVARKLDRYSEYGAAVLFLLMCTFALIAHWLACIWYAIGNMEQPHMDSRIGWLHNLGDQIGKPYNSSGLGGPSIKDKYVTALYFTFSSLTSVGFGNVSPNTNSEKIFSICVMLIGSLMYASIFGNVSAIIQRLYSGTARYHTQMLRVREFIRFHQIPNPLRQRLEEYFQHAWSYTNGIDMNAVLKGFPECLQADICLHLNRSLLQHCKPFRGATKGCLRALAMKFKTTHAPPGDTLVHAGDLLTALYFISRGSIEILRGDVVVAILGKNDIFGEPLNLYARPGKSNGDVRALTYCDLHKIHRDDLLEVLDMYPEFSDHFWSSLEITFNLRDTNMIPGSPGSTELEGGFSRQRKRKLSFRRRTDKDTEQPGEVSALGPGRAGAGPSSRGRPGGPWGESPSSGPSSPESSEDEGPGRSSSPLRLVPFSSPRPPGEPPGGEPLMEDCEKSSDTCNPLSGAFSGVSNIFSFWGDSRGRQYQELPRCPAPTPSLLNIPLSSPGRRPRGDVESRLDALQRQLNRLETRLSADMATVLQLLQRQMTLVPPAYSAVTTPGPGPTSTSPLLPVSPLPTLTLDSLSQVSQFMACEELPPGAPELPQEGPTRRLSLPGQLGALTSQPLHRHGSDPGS
hERG (KCNH2), sequence (Q12809 whole entry): as above

CC[C@]1(c2cccc(NS(C)(=O)=O)c2)[C@@H]2CN(CC3Cc4ccccc4C3)C[C@@H]21
CLint scaled [1]: 19 mL/min/kg
IC50 [2]: 326 nM
inhibition at 8 min, 3 µM [3]: 35%
efflux ratio [4]: 3.5

CC[C@]1(c2cccc(NS(C)(=O)=O)c2)[C@@H]2CN(CC3(O)Cc4ccccc4C3)C[C@@H]21 [CP-866087]
Kp at 0.75 h [5]: 2
ED50 [6]: 0.1 mg/kg
Vd [7]: 21.7 L/kg
Ki [8]: 1 nM
clearance [9]: 120 mL/min/kg
inhibition [10]: Dose-dependent effect
half-life [11]: 11 h
Ki [12]: 170 nM
CLint scaled [1]: 12 mL/min/kg
Ki [13]: 42 nM
concentration at 0.75 h [14]: 11.9 nM
inhibition in vivo at 1 mg/kg [15]: 23%
Ki [16]: 0.28 nM
inhibition in vivo at 5.6 mg/kg [17]: 42%
inhibition at 8 min, 3 µM [3]: 6%
concentration at 0.75 h [18]: 338 nM
fraction unbound at 0.75 h [19]: 0.034

O=C1CC[C@@]2(O)[C@H]3Cc4ccc(O)c5c4[C@@]2(CCN3CC2CC2)[C@H]1O5 [NALTREXONE]
inhibition in vivo at 3 mg/kg [20]: 21%

CC[C@]1(c2cccc(C(N)=O)c2)[C@@H]2CN(CC3(O)Cc4ccccc4C3)C[C@@H]21
Ratio Ki [21]: 17
Ki [8]: 3.5 nM
Ki [12]: 108 nM
CLint scaled [1]: 11 mL/min/kg
IC50 [2]: 2200 nM
Ratio Ki [22]: 31
Ki [13]: 60 nM
Ki [16]: 0.16 nM
inhibition at 8 min, 3 µM [3]: 17%
efflux ratio [4]: 2.9

CC[C@]1(c2cccc(NS(C)(=O)=O)c2)[C@@H]2CN(CCCC3(O)CCCCC3)C[C@@H]21
Ratio Ki [21]: 8
ED50 [6]: 0.63 mg/kg
Ki [8]: 2 nM
IC20 [23]: 320 nM
Ki [12]: 166 nM
Ratio [24]: 15
CLint scaled [1]: 9 mL/min/kg
IC50 [2]: 710 nM
Ratio Ki [22]: 83
Ki [13]: 16 nM
Ki [16]: 0.18 nM
inhibition at 8 min, 3 µM [3]: 14%
efflux ratio [4]: 6.5
